In paper PMC4666032, “KPT-330, a potent and selective exportin-1 (XPO-1) inhibitor, shows antitumor effects modulating the expression of cyclin D1 and survivin in prostate cancer models” (BMC Cancer, 2015):

Tests used:
PC3 cells = assay: Western blot of nuclear proteins; format: cell-based, human; details: 100 nM, 2-12 hrs
Protocol: (§1) Cytoplasmic and nuclear protein extracts were obtained by using the Nuclear/Cytosol Fractionation Kit from Biovision Inc. (Milpitas, CA, USA). Cell extracts and conditioned media from treated and untreated cells were electrophoresed under reducing conditions and transferred to nitrocellulose filter (Schleicher and Schuell GmbH, Dassel, Germany). Non specific binding sites were blocked for 1 h in 5 % non-fat dried milk in a Tris buffer containing 20 mM Tris and 137 mM NaCl (pH 7.6). Blots were incubated with 1 μg/ml of primary antibody diluted in blocking solution for 1 h at room temperature, washed and then incubated for 1 h in secondary antibody diluted 1:3000 in blocking solution. Following an additional wash, reactive bands were visualized by a chemiluminescent detection kit (Supersignal, Perbio Science, Tattenhall, UK) using Bio-Rad gel Doc™ (Bio-Rad Laboratories S.r.l., Milan, Italy).
(§2) The molecular pathways that are induced by XPO-1 inhibition were evaluated by immunoblots, ELISA and immunocytochemical analyses performed in PC3, DU145 and 22rv1 as models of CRPC using 100 nM KPT-330 as reference compound. The effects were monitored in early and chronic treatments. […] In Fig. 3a, we show representative western blots for nuclear and cytoplasm expression of cyclin D1 and XPO-1 in PC3 cell extracts after 2–12 hr of treatment with KPT-330. […] In addition, prolonged treatment with KPT-330 determined a reduction of cyclin D1 protein expression in DU145 cell lines (Fig. 3c). Increased nuclear expression of FOXO3a is visible also by IHC (Fig. 3e) in 22rv1 cells treated with KPT-330. […] Therefore, the inhibition of XPO-1-mediated export machinery may enhance AR signaling (manuscript in preparation). […] Although proteasome inhibitors are considered for treatment of solid tumors, these compounds could reduce the effectiveness of selinexor, requiring further investigation.

22rv1 cells = assay: Western blot of nuclear proteins; format: cell-based, human; details: 100 nM
Protocol: as §1, §2

PC3, DU145 and 22rv1 = assay: Molecular changes by immunoblots, ELISA and immunocytochemistry; format: cell-based, human
Protocol: as §1, §2

models of aggressive PCa = assay: In vivo models of aggressive PCa (xenograft not specified); parameters: species or system mice
Description: Male CD1 nude mice (Charles River, Milan, Italy) were maintained under the guidelines established by the University of L’Aquila, Medical School and Science and Technology School Board Regulations. Experiments on animals have been approved by your local IRB in compliance with the Italian government regulation n.116 January 27, 1992 for the use of laboratory animals which is line with ARRIVE guidelines. All mice received subcutaneous flank injections of 1 x 10^6 PC3, DU145 or 22v1 cells. Tumor growth was measured bi-weekly with a Vernier caliper (length x width). Tumor weight was calculated according to the formula: TW (mg) = tumor volume (mm^3) = d2 x D/2, where d and D are the shortest and longest diameters, respectively. The effects of the treatments were examined as previously described. […]
Mice were treated by oral gavage with either vehicle control (Pluronic F-68/PVP-K29/32), KPT330 or KPT251. […] In vivo, combinational studies were evaluated by CalcuSyn (Biosoft). For the calculation of CI, the values of cell kill for a fixed tumor volume were considered (determined by the log cell kill (LCK)). LCK was determined as LCKZ (TKC)/(3.3KTd), where Td represents the mean control group doubling time required to reach a fixed tumor volume, expressed in days, whereas T and C are the same values as described above.

## O=C(/C=C\n1cnc(-c2cc(C(F)(F)F)cc(C(F)(F)F)c2)n1)NNc1cnccn1 [KPT-330]
PC3 cells
  nuclear FOXO, p21, p27, cyclin B1: nuclear accumulation
22rv1 cells; 22rv1 cells, prolonged exposure
  total expression of AR, prolonged exposure: significantly reduced
22rv1 cells; AR+/p53wt 22rv1 cells
  nuclear expression of p53 and MDM2: increased
22rv1 cells; AR+/p53wt 22rv1 cells, early
  nuclear expression of AR: increased
PC3, DU145 and 22rv1; 100 nM, 24, 48 and 72 hrs
  cell cycle distribution: accumulation of cells in the G1 cell cycle phase with loss of cells in the S and G2/M phase
PC3, DU145 and 22rv1; 100 nM, early treatment
  XPO-1 localization, early treatment: early XPO-1 nuclear accumulation
  cyclin D1 cytosolic levels: strongly reduced
  cyclin D1 nuclear expression: increased
PC3, DU145 and 22rv1; 100 nM, prolonged treatments
  XPO-1 protein levels, prolonged treatment: dramatically reduced
PC3, DU145 and 22rv1; PCa cell lines, Western blots and ELISAs, 100 nM
  nuclear export of survivin: reduced
Models of aggressive PCa; at similar dosage
  antitumor effects compared to KPT-251: better antitumor effects
Models of aggressive PCa; internal control docetaxel, data not shown
  tumor volume relative to docetaxel-treated animals: approximately one-third
